Consider ten molecules from ChEMBL document CHEMBL2434925, “Synthesis and antiviral activity of a novel class of (5-oxazolyl)phenyl amines” (Eur J Med Chem, 2013).

As usually defined, the IC50 is the point on the concentration scale where inhibition reaches its midpoint. Usually CC50 stands for the concentration giving 50% cytotoxicity.

One data set concerns Hepatitis C virus. Description: Antiviral activity against HCV expressing pFL-J6/JFH/JC1 infected in human Huh7.5 cells assessed as inhibition of viral RNA synthesis after 96 hrs by one-step RT-PCR analysis. The class given is functional, organism-based, Hepacivirus hominis. The following applies: Huh-7, 96 h.
Data set [1] in a line: Selectivity index, ratio of CC50 for african green monkey Vero cells to IC50 for Coxsackie B3 virus Schmitt. It counts as functional.
A short description of data set [2]: Selectivity index, ratio of CC50 for human Huh7.5 cells to IC50 for HCV expressing pFL-J6/JFH/JC1. It counts as functional, Huh-7.
A short description of data set [3]: Cytotoxicity against african green monkey Vero cells after 96 hrs by MTT assay. The following applies: chlorocebus sabaeus. It counts as cell-based. (In general: Tetrazolium assays rely on reduction of a dye to a coloured formazan, in cell work by metabolically active cells.)
Data set [4] can be described thus: Selectivity index, ratio of CC50 for african green monkey Vero cells to IC50 for Coxsackie B3 virus Nancy. It counts as functional.
The next data set deals with Coxsackievirus B6. In words: Antiviral activity against Coxsackie B6 virus Schmitt in african green monkey Vero cells assessed as inhibition virus-induced cytopathic effect after 48 hrs. The class given is functional, organism-based. The note with it: Enterovirus B. For orientation: Cytopathic effects are the visible damage that an infection or toxin causes in cultured cells.

Another data set deals with Coxsackievirus B3. Description: Antiviral activity against Coxsackie B3 virus Nancy in african green monkey Vero cells assessed as inhibition virus-induced cytopathic effect after 48 hrs. It counts as functional, organism-based. The note with it: Enterovirus B.
Data set [5] can be described thus: Cytotoxicity against human Huh7.5 cells after 96 hrs by MTT assay. The class given is cell-based, Huh-7.

As for `COc1cc(/N=C/c2ccc(F)cc2)ccc1-c1cnco1`, the IC50 in the data set with Hepatitis C virus is 1.18 µM; in the data set on Coxsackievirus B6, 58.2 µM; in the data set on Coxsackievirus B3, 43.3 µM. Also, the “Ratio CC50/IC50” value is 5.6 in data set [1], above 84.8 in data set [2] and 7.5 in data set [4]. In addition, the values for the CC50 at 96 h in data set [3] and in data set [5] were 324 µM and above 100 µM, respectively.

Take `COc1cc(NCc2scnc2C)ccc1-c1cnco1`: the IC50 turned out to be 6.88 µM with Hepatitis C virus, 10.6 µM with Coxsackievirus B6 and 5.67 µM with Coxsackievirus B3. In addition, the “Ratio CC50/IC50” value is reported as 7 in data set [1], 8.5 in data set [2] and 13 in data set [4]. Besides, the CC50 at 96 h in data set [3] was 73.7 µM; in data set [5], 58.5 µM.

Consider `COc1cc(NCc2ccc(C(=O)O)s2)ccc1-c1cnco1`, for which the values for the IC50 in the data set on Hepatitis C virus, with Coxsackievirus B6 and in the data set on Coxsackievirus B3 were 22.4 µM, 56 µM and 67.3 µM, respectively. The “Ratio CC50/IC50” value in data set [1] was 6.2; in data set [2], above 4.5; in data set [4], 5.2. The CC50 at 96 h in data set [3] was 350 µM; in data set [5], above 100 µM.

On to `COc1c(C)c2c(c(O)c1C/C=C(\C)CCC(=O)O)C(=O)OC2` [MYCOPHENOLIC ACID], for which the IC50 in the data set with Hepatitis C virus was 4.16 µM; with Coxsackievirus B6 it was 69.4 µM; in the data set with Coxsackievirus B3, 10.2 µM. Further, the “Ratio CC50/IC50” value was 9 in data set [1], above 24 in data set [2] and 61.5 in data set [4]. In addition, the CC50 at 96 h in data set [3] was 624 µM; in data set [5] it was above 100 µM.

Consider `COc1ccc(-c2cnco2)cc1NCc1cccs1`, for which the IC50 in the data set on Hepatitis C virus was 3.08 µM; with Coxsackievirus B6, 11.3 µM; with Coxsackievirus B3 it was 25.9 µM. Moreover, the “Ratio CC50/IC50” value in data set [1] is on record as 4.8; in data set [2] it was above 32.5; in data set [4], 2.1. Further, the CC50 at 96 h is 53.8 µM in data set [3] and above 100 µM in data set [5].

As to `COc1cc(NCc2ccc(C)o2)ccc1-c1cnco1`, the IC50 in the data set on Hepatitis C virus was 1.01 µM; with Coxsackievirus B6 it was 6.78 µM; in the data set with Coxsackievirus B3, 5.01 µM. For the same molecule, the “Ratio CC50/IC50” value came to 6.7 in data set [1], 62.8 in data set [2] and 9 in data set [4]. The figures for the CC50 at 96 h in data set [3] and in data set [5] were 45.1 µM and 63.4 µM, respectively.

For `COc1cc(NCc2cc(OC)c(OC)c(OC)c2)ccc1-c1cnco1`, the IC50 in the data set on Hepatitis C virus is above 3.71 µM; with Coxsackievirus B6, 11.6 µM; with Coxsackievirus B3, 11.6 µM. For the same molecule, the results for the “Ratio CC50/IC50” value in data set [1], in data set [2] and in data set [4] were 3.6, below 9.9 and 3.6, respectively. For the same molecule, the CC50 at 96 h in data set [3] was 41.6 µM; in data set [5], 36.6 µM.

In the case of `COc1cc(NCc2ccc(Br)s2)ccc1-c1cnco1`, the results for the IC50 in the data set on Hepatitis C virus, in the data set on Coxsackievirus B6 and in the data set on Coxsackievirus B3 were above 3.75 µM, 1.2 µM and 5.14 µM, respectively. Further, the figures for the “Ratio CC50/IC50” value in data set [1], in data set [2] and in data set [4] were 39.4, below 10.5 and 9.2, respectively. Besides, the CC50 at 96 h in data set [3] is 47.3 µM; in data set [5], 39.4 µM.

Consider `COc1cc(/N=C/C=C/c2ccccc2)ccc1-c1cnco1`, for which the IC50 with Hepatitis C virus stood at 6.99 µM; with Coxsackievirus B6, 18.9 µM; in the data set with Coxsackievirus B3, 15.1 µM. Further, the “Ratio CC50/IC50” value in data set [1] is 5.6; in data set [2], above 14.3; in data set [4], 7. For the same molecule, the CC50 at 96 h was 105 µM in data set [3] and above 100 µM in data set [5].

`COc1cc(NCc2ccsc2)ccc1-c1cnco1`: the IC50 with Hepatitis C virus was determined as 1.25 µM; with Coxsackievirus B6 it was 4.65 µM; in the data set on Coxsackievirus B3, 3.66 µM. In addition, the “Ratio CC50/IC50” value worked out at 38.9 in data set [1], 50.5 in data set [2] and 49.4 in data set [4]. Further, the CC50 at 96 h in data set [3] was found to be 181 µM; in data set [5] it was 63.1 µM.
